Experimental data: patent publication US20040038875A1, “Alpha 7nicotinic receptor screening assays” (priority 2002, published 2004)

Key:
[1] = biological target: T1, homomeric alpha 7 nicotinic receptors (Homo sapiens, UniProt P36544); details: cited from earlier work
hippocampal neurons = assay: Ca2+ flux into hippocampal neurons; assay type: cell-based
Text: This is of particular interest in relation to Alzheimer's Disease since the hippocampus is the major site of degeneration neuropathology associated with that disease.

[2] = biological target: T2, human alpha 7 nicotinic receptor (Homo sapiens, UniProt P36544); assay: ACh-induced currents / Ca2+ flux in Xenopus oocytes expressing human alpha 7 nicotinic receptors (two microelectrode voltage clamp, intracellular recordings); assay type: cell-based
T2 construct: expressed in transfected cells; host or cells: Xenopus oocytes injected with in vitro transcribed alpha 7 subunit mRNA
T2 sequence (P36544 23-502): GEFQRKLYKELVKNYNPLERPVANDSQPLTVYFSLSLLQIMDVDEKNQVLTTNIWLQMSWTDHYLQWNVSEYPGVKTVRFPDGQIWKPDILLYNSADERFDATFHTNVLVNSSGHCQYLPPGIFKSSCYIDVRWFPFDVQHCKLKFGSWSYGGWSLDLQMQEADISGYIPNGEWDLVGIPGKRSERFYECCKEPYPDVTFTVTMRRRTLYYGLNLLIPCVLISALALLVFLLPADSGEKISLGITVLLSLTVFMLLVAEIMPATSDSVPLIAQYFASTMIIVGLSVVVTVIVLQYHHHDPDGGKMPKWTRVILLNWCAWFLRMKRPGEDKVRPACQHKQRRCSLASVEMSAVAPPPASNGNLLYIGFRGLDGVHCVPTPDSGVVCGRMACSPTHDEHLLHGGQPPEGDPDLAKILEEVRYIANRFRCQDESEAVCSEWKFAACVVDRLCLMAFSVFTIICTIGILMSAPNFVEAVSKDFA

[3] = system: neurons of the substantia nigra; details: cited from earlier work
[4] = biological target: T1, homomeric alpha 7 nicotinic receptors; parameters: host or cells: oocytes; details: in the μM range, human receptor in oocytes; cited from earlier work
[5] = biological target: T3, neuronal chick homomeric alpha 7 nicotinic receptors (Gallus gallus, UniProt P22770); details: in the μM range, chick receptor in oocytes; cited from earlier work
T3 construct: host or cells: oocytes
T3 sequence (P22770 23-502 limits assumed): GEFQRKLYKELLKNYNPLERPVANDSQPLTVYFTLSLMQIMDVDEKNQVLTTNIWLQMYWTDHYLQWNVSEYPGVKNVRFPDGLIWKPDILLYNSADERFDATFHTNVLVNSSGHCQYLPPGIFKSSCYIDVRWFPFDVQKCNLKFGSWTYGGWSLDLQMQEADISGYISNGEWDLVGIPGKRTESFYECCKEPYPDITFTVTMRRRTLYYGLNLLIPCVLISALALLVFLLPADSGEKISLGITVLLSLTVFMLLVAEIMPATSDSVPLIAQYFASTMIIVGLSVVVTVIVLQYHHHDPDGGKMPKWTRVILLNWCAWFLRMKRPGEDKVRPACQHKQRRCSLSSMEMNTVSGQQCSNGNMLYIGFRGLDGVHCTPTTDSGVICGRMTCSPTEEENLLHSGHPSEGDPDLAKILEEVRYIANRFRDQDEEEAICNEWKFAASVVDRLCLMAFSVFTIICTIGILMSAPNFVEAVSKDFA

T1 sequence (P36544 23-502): as the sequence (P36544 23-502) above

COc1ccc(/C=C2\CCCN=C2c2cccnc2)c(OC)c1 [GTS-21, 2,4-dimethoxybenzylidene anabaseine]
functional selectivity compared to α4β2 nicotinic receptors [1]: high functional selectivity

AEFHRWSSYMVHWK [Synaptica Peptide]
Ca2+ flux into hippocampal neurons (hippocampal neurons): enhance Ca^2+ flux into hippocampal neurons which eventually switches off calcium channels | reversibility of effects [2]: reversible but recovery was slow | effect on ACh-induced Ca2+ flux ([2]; 0.001 μM applied with ACh, no pre-incubation): increased Ca^2+ flux | Ca2+ current, intracellular recordings ([2]; 10 μM applied without ACh): no Ca^2+ current was observed | current, intracellular recordings ([2]; 10 μM followed after 30 seconds by 100 μM ACh): reduced current compared to that observed with ACh alone | effect on ACh-evoked response at high dose ([2]; high dose, range 10^−12 to 5×10^−6): enhancement of ACh-evoked response observed with low doses of the peptide was reversed | effect on ACh-mediated responses ([2]; peptide applied, after 2 minutes co-application of peptide and ACh): inhibition of ACh-mediated responses | calcium potentials induced by NMDA or direct depolarisation ([3]; initial effect): initially enhances calcium potentials | calcium entry ([3]; sustained application for a few minutes): reduction in calcium entry

Aβ1-42: Aβ1-42 fragment of human APP associated with Alzheimer's Disease [reference compound]
modulation of calcium influx [3]: not observed

ivermectin
acetyl choline-evoked currents [4]: strongly enhance | acetyl choline-evoked currents [5]: strongly enhance
